# Source: the kinase profiling compilation of Christmann-Franck et al. (2016)
# Key:
# [1] = target: KDR (human) (UniProt P35968); assay: SelectScreen, TR FRET; details: compound 5.0 µM
# [2] = target: SRMS (human) (UniProt Q9H3Y6); assay: SelectScreen, TR FRET; details: compound 5.0 µM
# [3] = target: PTK6 (human) (UniProt Q13882); assay: SelectScreen, TR FRET; details: compound 5.0 µM
# [4] = target: BLK (human) (UniProt P51451); assay: SelectScreen, TR FRET; details: compound 5.0 µM
# [5] = target: ROS1 (human) (UniProt P08922); assay: SelectScreen, TR FRET; details: compound 5.0 µM
# [6] = target: YES1 (human) (UniProt P07947); assay: SelectScreen, TR FRET; details: compound 5.0 µM
# [7] = system: FLT3 (human), P36888 [D835Y]; assay: SelectScreen, TR FRET; details: compound 5.0 µM
# [8] = target: PDPK1 (human) (UniProt O15530); assay: SelectScreen, TR FRET; details: compound 5.0 µM
# [9] = target: MST4 (human) (UniProt Q9P289); assay: SelectScreen, TR FRET; details: compound 5.0 µM
# [10] = target: PRKCD (human) (UniProt Q05655); assay: SelectScreen, TR FRET; details: compound 5.0 µM
# [11] = target: CHEK1 (human) (UniProt O14757); assay: SelectScreen, TR FRET; details: compound 5.0 µM
# [12] = target: STK4 (human) (UniProt Q13043); assay: SelectScreen, TR FRET; details: compound 5.0 µM
# [13] = target: HCK (human) (UniProt P08631); assay: SelectScreen, TR FRET; details: compound 5.0 µM
# [14] = target: PTK2 (human) (UniProt Q05397); assay: SelectScreen, TR FRET; details: compound 5.0 µM
# [15] = target: CDK5 CDK5R1 p35 (human) (UniProt Q00535+Q15078); assay: SelectScreen, TR FRET; details: compound 5.0 µM
# [16] = target: BTK (human) (UniProt Q06187); assay: SelectScreen, TR FRET; details: compound 5.0 µM
# [17] = target: ERBB2 (human) (UniProt P04626); assay: SelectScreen, TR FRET; details: compound 5.0 µM
# [18] = target: CDK1 CCNB1 (human) (UniProt P06493+P14635); assay: SelectScreen, TR FRET; details: compound 5.0 µM
# [19] = target: FRK (human) (UniProt P42685); assay: SelectScreen, TR FRET; details: compound 5.0 µM
# [20] = system: ABL1 (human), P00519 [Y253F]; assay: SelectScreen, TR FRET; details: compound 5.0 µM
# [21] = target: TEK (human) (UniProt Q02763); assay: SelectScreen, TR FRET; details: compound 5.0 µM
# [22] = target: BMX (human) (UniProt P51813); assay: SelectScreen, TR FRET; details: compound 5.0 µM
# [23] = target: SYK (human) (UniProt P43405); assay: KINOMEscan competition binding; details: compound 1.0 µM
# [24] = target: MAP3K11 (human) (UniProt Q16584); assay: KINOMEscan competition binding; details: compound 1.0 µM
# [25] = target: CDKL3 (human) (UniProt Q8IVW4); assay: KINOMEscan competition binding; details: compound 1.0 µM
# [26] = target: TYRO3 (human) (UniProt Q06418); assay: KINOMEscan competition binding; details: compound 1.0 µM
# [27] = system: MET (human), P08581 [Y1235D]; assay: KINOMEscan competition binding; details: compound 1.0 µM
# [28] = system: KIT (human), P10721 [V559D]; assay: KINOMEscan competition binding; details: compound 1.0 µM
# [29] = target: MYLK4 (human) (UniProt Q86YV6); assay: KINOMEscan competition binding; details: compound 1.0 µM
# [30] = target: MUSK (human) (UniProt O15146); assay: KINOMEscan competition binding; details: compound 1.0 µM
# [31] = target: ALK (human) (UniProt Q9UM73); assay: KINOMEscan competition binding; details: compound 1.0 µM
# [32] = target: EPHB4 (human) (UniProt P54760); assay: KINOMEscan competition binding; details: compound 1.0 µM
# [33] = target: CHEK1 (human) (UniProt O14757); assay: KINOMEscan competition binding; details: compound 1.0 µM
# [34] = target: MYO3A (human) (UniProt Q8NEV4); assay: KINOMEscan competition binding; details: compound 1.0 µM
# [35] = target: RPS6KA3 KD1 (human) (UniProt P51812); assay: KINOMEscan competition binding; details: compound 1.0 µM
# [36] = target: CDK18 (human) (UniProt Q07002); assay: KINOMEscan competition binding; details: compound 1.0 µM
# [37] = target: MYO3B (human) (UniProt Q8WXR4); assay: KINOMEscan competition binding; details: compound 1.0 µM
# [38] = target: CLK4 (human) (UniProt Q9HAZ1); assay: KINOMEscan competition binding; details: compound 1.0 µM
# [39] = target: EPHA1 (human) (UniProt P21709); assay: KINOMEscan competition binding; details: compound 1.0 µM
# [40] = target: IKBKB (human) (UniProt O14920); assay: KINOMEscan competition binding; details: compound 1.0 µM
# Sequence of CHEK1 (human) (O14757 whole entry, looked up): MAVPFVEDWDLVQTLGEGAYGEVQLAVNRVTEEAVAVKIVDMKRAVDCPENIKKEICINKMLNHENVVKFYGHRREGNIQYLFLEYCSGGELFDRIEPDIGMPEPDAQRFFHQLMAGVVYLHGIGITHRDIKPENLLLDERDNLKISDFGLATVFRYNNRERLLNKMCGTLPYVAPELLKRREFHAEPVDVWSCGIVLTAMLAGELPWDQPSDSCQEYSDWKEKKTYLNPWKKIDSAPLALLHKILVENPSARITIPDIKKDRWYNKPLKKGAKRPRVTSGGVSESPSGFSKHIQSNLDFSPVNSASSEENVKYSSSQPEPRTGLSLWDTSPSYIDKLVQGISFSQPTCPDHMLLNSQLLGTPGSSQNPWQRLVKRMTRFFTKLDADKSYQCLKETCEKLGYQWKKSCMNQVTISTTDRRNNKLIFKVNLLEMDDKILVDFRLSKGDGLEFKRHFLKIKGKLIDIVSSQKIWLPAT
# Sequence of PTK2 (human) (Q05397 whole entry, looked up): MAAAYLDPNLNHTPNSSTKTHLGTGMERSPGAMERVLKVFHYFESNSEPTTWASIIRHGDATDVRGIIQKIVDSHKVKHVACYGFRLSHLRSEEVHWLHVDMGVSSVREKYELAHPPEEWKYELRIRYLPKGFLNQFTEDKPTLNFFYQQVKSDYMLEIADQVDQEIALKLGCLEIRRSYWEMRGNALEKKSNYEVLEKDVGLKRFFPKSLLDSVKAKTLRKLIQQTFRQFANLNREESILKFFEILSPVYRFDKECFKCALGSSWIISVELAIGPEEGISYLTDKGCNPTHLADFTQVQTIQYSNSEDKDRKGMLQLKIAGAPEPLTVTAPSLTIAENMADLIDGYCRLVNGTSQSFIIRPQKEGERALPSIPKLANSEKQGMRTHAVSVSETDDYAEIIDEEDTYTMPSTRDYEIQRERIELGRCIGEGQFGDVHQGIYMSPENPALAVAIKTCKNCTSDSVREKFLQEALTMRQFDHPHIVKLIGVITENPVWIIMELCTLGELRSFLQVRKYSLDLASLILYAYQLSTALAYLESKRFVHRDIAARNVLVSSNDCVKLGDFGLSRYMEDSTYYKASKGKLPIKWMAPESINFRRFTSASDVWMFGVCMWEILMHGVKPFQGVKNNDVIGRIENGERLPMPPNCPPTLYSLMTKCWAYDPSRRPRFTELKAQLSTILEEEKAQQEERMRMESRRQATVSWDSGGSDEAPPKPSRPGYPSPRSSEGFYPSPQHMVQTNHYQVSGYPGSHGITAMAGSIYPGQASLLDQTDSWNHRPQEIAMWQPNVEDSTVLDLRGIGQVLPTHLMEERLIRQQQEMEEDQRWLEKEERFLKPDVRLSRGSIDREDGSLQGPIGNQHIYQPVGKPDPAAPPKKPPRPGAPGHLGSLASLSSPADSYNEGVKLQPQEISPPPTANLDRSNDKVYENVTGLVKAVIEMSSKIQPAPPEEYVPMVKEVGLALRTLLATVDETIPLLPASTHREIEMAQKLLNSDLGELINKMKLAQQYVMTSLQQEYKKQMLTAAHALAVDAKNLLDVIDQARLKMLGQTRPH
# Sequence of SRMS (human) (Q9H3Y6 whole entry, looked up): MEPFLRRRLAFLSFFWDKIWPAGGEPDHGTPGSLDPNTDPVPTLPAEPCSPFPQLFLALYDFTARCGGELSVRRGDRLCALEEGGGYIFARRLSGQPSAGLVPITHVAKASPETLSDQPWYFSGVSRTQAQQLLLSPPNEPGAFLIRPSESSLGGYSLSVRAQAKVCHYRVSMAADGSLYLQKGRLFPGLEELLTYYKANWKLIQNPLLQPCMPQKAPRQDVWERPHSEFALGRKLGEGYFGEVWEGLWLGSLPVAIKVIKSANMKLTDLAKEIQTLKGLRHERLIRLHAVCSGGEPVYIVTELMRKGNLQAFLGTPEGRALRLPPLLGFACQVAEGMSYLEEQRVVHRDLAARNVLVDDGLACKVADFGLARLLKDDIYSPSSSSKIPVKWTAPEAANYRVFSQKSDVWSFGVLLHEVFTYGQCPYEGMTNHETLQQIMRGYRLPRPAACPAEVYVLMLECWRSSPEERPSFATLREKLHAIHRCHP
# Sequence of FRK (human) (P42685 whole entry, looked up): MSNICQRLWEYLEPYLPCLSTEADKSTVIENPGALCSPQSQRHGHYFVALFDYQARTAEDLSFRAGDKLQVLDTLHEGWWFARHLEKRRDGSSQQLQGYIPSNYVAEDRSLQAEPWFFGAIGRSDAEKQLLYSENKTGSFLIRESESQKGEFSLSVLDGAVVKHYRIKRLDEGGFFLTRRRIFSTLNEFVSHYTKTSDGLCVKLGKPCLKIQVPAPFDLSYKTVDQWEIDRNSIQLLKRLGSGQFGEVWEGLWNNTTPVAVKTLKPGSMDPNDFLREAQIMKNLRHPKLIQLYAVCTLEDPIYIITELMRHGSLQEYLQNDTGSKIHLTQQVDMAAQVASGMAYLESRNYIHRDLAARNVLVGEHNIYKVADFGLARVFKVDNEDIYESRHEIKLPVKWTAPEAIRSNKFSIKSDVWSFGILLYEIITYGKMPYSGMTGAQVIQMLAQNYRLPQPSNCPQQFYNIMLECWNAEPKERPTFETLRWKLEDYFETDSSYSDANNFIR
# Sequence of YES1 (human) (P07947 whole entry, looked up): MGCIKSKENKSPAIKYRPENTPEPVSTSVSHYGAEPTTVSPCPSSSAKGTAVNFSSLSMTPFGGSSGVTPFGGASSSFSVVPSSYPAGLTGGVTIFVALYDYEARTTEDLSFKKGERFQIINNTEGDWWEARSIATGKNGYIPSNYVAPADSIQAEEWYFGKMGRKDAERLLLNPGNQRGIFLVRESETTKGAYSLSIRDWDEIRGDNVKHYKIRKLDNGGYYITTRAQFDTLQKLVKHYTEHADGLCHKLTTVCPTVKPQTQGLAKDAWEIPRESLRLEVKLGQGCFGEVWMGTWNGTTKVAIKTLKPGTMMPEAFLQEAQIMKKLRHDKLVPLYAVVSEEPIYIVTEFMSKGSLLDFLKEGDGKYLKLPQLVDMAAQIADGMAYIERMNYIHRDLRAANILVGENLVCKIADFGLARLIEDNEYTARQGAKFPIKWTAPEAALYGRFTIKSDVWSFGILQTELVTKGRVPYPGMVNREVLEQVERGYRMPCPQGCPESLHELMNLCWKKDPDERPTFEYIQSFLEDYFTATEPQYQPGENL
# Sequence of MYO3A (human) (Q8NEV4 whole entry, looked up): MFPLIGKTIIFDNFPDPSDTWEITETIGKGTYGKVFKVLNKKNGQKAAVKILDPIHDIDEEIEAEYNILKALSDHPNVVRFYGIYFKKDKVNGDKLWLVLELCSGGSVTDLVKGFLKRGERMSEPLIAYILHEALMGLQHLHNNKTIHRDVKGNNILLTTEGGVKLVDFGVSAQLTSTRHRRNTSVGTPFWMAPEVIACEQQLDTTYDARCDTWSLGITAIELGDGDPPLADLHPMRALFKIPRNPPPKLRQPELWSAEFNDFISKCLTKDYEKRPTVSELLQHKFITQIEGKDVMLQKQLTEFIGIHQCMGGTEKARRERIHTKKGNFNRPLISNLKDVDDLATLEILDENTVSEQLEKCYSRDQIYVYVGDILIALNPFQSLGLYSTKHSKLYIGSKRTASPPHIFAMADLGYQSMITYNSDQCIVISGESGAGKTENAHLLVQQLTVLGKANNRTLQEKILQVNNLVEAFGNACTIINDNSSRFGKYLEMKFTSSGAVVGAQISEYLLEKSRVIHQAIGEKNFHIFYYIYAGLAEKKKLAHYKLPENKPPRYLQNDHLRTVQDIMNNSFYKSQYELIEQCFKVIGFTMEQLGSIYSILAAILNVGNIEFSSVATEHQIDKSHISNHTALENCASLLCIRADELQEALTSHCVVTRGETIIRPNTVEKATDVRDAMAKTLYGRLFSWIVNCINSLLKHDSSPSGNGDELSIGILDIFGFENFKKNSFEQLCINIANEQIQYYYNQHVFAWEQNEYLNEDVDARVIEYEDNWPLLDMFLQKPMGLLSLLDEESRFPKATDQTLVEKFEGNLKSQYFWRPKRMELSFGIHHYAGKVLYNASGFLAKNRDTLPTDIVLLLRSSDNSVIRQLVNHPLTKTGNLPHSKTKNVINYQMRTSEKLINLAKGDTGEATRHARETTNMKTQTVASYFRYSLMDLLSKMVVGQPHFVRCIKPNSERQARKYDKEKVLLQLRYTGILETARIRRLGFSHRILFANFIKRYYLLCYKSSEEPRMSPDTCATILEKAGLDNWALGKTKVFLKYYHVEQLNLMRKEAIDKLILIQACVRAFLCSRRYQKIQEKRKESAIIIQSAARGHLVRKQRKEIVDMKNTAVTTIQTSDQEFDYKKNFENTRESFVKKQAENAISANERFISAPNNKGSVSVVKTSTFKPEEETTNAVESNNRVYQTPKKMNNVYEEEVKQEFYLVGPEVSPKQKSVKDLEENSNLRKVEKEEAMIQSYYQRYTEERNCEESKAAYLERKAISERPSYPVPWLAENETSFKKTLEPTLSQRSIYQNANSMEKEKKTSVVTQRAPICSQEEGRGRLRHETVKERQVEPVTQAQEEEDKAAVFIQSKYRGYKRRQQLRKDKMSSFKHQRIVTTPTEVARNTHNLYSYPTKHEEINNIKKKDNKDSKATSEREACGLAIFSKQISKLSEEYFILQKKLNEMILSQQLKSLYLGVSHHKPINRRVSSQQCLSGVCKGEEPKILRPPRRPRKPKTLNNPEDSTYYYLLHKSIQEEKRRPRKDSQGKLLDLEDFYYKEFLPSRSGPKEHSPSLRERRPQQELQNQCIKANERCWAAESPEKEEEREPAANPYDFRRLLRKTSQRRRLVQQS
# Sequence of MYLK4 (human) (Q86YV6 whole entry, looked up): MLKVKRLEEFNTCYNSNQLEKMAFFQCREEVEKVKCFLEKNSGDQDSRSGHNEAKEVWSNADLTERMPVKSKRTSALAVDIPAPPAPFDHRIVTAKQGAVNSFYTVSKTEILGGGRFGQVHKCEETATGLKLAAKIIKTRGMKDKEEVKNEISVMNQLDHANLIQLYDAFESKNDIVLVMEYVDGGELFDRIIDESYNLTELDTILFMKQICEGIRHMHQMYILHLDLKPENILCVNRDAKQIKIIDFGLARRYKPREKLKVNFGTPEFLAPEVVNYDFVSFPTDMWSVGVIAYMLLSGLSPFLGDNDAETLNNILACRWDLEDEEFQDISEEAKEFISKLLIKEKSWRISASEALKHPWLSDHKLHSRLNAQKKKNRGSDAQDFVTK
compound,measurement,setting,value
Nc1cc(C(F)(F)F)c(-c2cc(N3CCOCC3)nc(N3CCOCC3)n2)cn1,inhibition,[1],3%
same,inhibition,[2],13%
same,inhibition,[3],-10%
same,inhibition,[4],-3%
same,inhibition,[5],27%
same,inhibition,[6],12%
same,inhibition,[7],11%
same,inhibition,[8],4%
same,inhibition,[9],-3%
same,inhibition,[10],4%
same,inhibition,[11],3%
same,inhibition,[12],14%
same,inhibition,[13],10%
same,inhibition,[14],4%
same,inhibition,[15],-1%
same,inhibition,[16],3%
same,inhibition,[17],-4%
same,inhibition,[18],9%
same,inhibition,[19],2%
same,inhibition,[20],1%
same,inhibition,[21],5%
same,inhibition,[22],3%
same,inhibition of binding,[23],0%
same,inhibition of binding,[24],0%
same,inhibition of binding,[25],0%
same,inhibition of binding,[26],0%
same,inhibition of binding,[27],0%
same,inhibition of binding,[28],0%
same,inhibition of binding,[29],0%
same,inhibition of binding,[30],0%
same,inhibition of binding,[31],6%
same,inhibition of binding,[32],4%
same,inhibition of binding,[33],1%
same,inhibition of binding,[34],7%
same,inhibition of binding,[35],0%
same,inhibition of binding,[36],34%
same,inhibition of binding,[37],1%
same,inhibition of binding,[38],70%
same,inhibition of binding,[39],2%
same,inhibition of binding,[40],0%
